Laboratory results taken from patent publication US11192878B2, “Piperidine-2,6-dione derivative and use thereof” (KOREA RESEARCH INSTITUTE OF CHEMICAL TECHNOLOGY, priority 2017, dated 2021).
Where a name gives a salt, the structure may show the parent alone.

Tested on: NCI-H929 cells
Assay: Cytotoxicity experiment (WST-1)
Type: cell-based
Details: Homo sapiens, 72 hours, WST-1, absorbance 450 nm
Method: In order to confirm the effect of the compound of the present disclosure on cancer cells and normal cells, the cytotoxicity experiment was conducted as follows.
After seeding NCI-H929 cells on a 96-well plate so as to be 10,000 cells per each well, each compound was treated in a predetermined concentration. In 72 hours, WST-1 reagent was added, and in 1 hour, the absorbance was measured at 450 nm using spectramax spectrophotometer to measure the degree of cell death.

Compound | IC50 [µM]
O=C1CCC(n2nnc3cccc([N+](=O)[O-])c3c2=O)C(=O)N1 (stereo not drawn) [Chemical formula 9, 3-(5-nitro-4-oxobenzo[d][1,2,3]triazin-3(4H)-yl)piperidine-2,6-dione] | 10 to 50
Nc1cccc2ccn(C3CCC(=O)NC3=O)c(=O)c12 (stereo not drawn) [Chemical formula 31, 3-(8-amino-1-oxoisoquinolin-2(1H)-yl)piperidine-2,6-dione] | 10 to 50
CC(=O)Nc1ccc2nnn(C3CCC(=O)NC3=O)c(=O)c2c1 (stereo not drawn) [Chemical formula 23, N-(3-(2,6-dioxopiperidin-3-yl)-4-oxo-3,4-dihydrobenzo[d][1,2,3]triazin-6-yl)acetamide] | 10 to 50
O=C1CCC(n2nnc3cccc(F)c3c2=O)C(=O)N1 (stereo not drawn) [Chemical formula 8, 3-(5-fluoro-4-oxobenzo[d][1,2,3]triazin-3(4H)-yl)piperidine-2,6-dione] | 1 to 10
Nc1cccc2nnn(C3CCC(=O)N(COC(=O)C4CCNCC4)C3=O)c(=O)c12 (stereo not drawn) [Chemical formula 60, (3-(5-amino-4-oxobenzo[d][1,2,3]triazin-3(4H)-yl)-2,6-dioxopiperidin-1-yl)methyl piperidine-4-carboxylate hydrochloride] | < 1
O=C1CCC(n2nnc3ccccc3c2=O)C(=O)N1 (stereo not drawn) [Chemical formula 25, 3-(4-oxobenzo[d][1,2,3]triazin-3(4H)-yl)piperidine-2,6-dione] | 1 to 10
O=C1CCC(n2nnc3cccc(O)c3c2=O)C(=O)N1 (stereo not drawn) [Chemical formula 57, 3-(5-hydroxy-4-oxobenzo[d][1,2,3]triazin-3(4H)-yl)piperidine-2,6-dione] | < 1
O=C1CCC(n2nnc3cccc(C(=O)O)c3c2=O)C(=O)N1 (stereo not drawn) [Chemical formula 29, 3-(2,6-dioxopiperidin-3-yl)-4-oxo-3,4-dihydrobenzo[d][1,2,3]triazin-5-carboxylic acid] | 10 to 50
COc1ccc2nnn(C3CCC(=O)NC3=O)c(=O)c2c1 (stereo not drawn) [Chemical formula 19, 3-(6-methoxy-4-oxobenzo[d][1,2,3]triazin-3(4H)-yl)piperidine-2,6-dione] | 10 to 50
Cc1cccc2nnn(C3CCC(=O)NC3=O)c(=O)c12 (stereo not drawn) [Chemical formula 11, 3-(5-methyl-4-oxobenzo[d][1,2,3]triazin-3(4H)-yl)piperidine-2,6-dione] | 1 to 10
CC(=O)Nc1cccc2nnn(C3CCC(=O)NC3=O)c(=O)c12 (stereo not drawn) [Chemical formula 20, N-(3-(2,6-dioxopiperidin-3-yl)-4-oxo-3,4-dihydrobenzo[d][1,2,3]triazin-5-yl)acetamide] | 10 to 50
CC[C@H](C)[C@H](N)C(=O)OCN1C(=O)CCC(n2nnc3cccc(N)c3c2=O)C1=O (stereo partly drawn) [Chemical formula 62, (3-(5-amino-4-oxobenzo[d][1,2,3]triazin-3(4H)-yl)-2,6-dioxopiperidin-1-yl)methyl L-isoleucinate hydrochloride] | < 1
Nc1cccc2c(=O)n(C3CCC(=O)NC3=O)ccc12 (stereo not drawn) [Chemical formula 24, 3-(5-amino-1-oxoisoquinolin-2(1H)-yl)piperidine-2,6-dione] | 10 to 50
CCCC(=O)OCN1C(=O)CCC(n2nnc3cccc(N)c3c2=O)C1=O (stereo not drawn) [Chemical formula 63, (3-(5-amino-4-oxobenzo[d][1,2,3]triazin-3(4H)-yl)-2,6-dioxopiperidin-1-yl)methyl butyrate] | < 1
Nc1cccc2nnn(C3CCC(=O)N(COC(=O)[C@H]4CCCN4)C3=O)c(=O)c12 (stereo partly drawn) [Chemical formula 61, (3-(5-amino-4-oxobenzo[d][1,2,3]triazin-3(4H)-yl)-2,6-dioxopiperidin-1-yl)methyl D-prolinate hydrochloride] | < 1
O=C1CCC(n2nnc3cccc(NC(=O)c4ccccc4)c3c2=O)C(=O)N1 (stereo not drawn) [Chemical formula 56, N-(3-(2,6-dioxopiperidin-3-yl)-4-oxo-3,4-dihydrobenzo[d][1,2,3]triazin-5-yl)benzamide] | 10 to 50
O=C1CCC(n2nnc3ccc([N+](=O)[O-])cc3c2=O)C(=O)N1 (stereo not drawn) [Chemical formula 27, 3-(6-nitro-4-oxobenzo[d][1,2,3]triazin-3(4H)-yl)piperidine-2,6-dione] | 10 to 50
O=C1CCC(n2nnc3cc([N+](=O)[O-])ccc3c2=O)C(=O)N1 (stereo not drawn) [Chemical formula 26, 3-(7-nitro-4-oxobenzo[d][1,2,3]triazin-3(4H)-yl)piperidine-2,6-dione] | 10 to 50
Cc1ccc(NC(=O)NCc2ccc3nnn(C4CCC(=O)NC4=O)c(=O)c3c2)cc1Cl (stereo not drawn) [Chemical formula 38, 1-(3-chloro-4-methylphenyl)-3-((3-(2,6-dioxopiperidin-3-yl)-4-oxo-3,4-dihydrobenzo[d][1,2,3]triazin-6-yl)methyl)urea] | < 1
Cc1ccc(NC(=O)NCc2ccc3c(=O)n(C4CCC(=O)NC4=O)nnc3c2)cc1Cl (stereo not drawn) [Chemical formula 37, 1-(3-chloro-4-methylphenyl)-3-((3-(2,6-dioxopiperidin-3-yl)-4-oxo-3,4-dihydrobenzo[d][1,2,3]triazin-7-yl)methyl)urea] | < 1
CC(C)(C)C(=O)OCN1C(=O)CCC(n2nnc3cccc(N)c3c2=O)C1=O (stereo not drawn) [Chemical formula 58, (3-(5-amino-4-oxobenzo[d][1,2,3]triazin-3(4H)-yl)-2,6-dioxopiperidin-1-yl)methyl pivalate] | < 1
CC1(n2nnc3cccc(N)c3c2=O)CCC(=O)NC1=O (stereo not drawn) [Chemical formula 30, 3-(5-amino-4-oxobenzo[d][1,2,3]triazin-3(4H)-yl)-3-methylpiperidine-2,6-dione] | 10 to 50
Nc1ccc2nnn(C3CCC(=O)NC3=O)c(=O)c2c1 (stereo not drawn) [Chemical formula 65, 3-(6-amino-4-oxobenzo[d][1,2,3]triazin-3(4H)-yl)piperidine-2,6-dione] | 10 to 50
Nc1cccc2nnn(C3CCC(=O)NC3=O)c(=O)c12 (stereo not drawn) [Chemical formula 7, 3-(5-amino-4-oxobenzo[d][1,2,3]triazin-3(4H)-yl)piperidine-2,6-dione] | < 1
Nc1cccc2nnn(C3CCC(=O)N(COC(=O)c4ccccc4)C3=O)c(=O)c12 (stereo not drawn) [Chemical formula 59, (3-(5-amino-4-oxobenzo[d][1,2,3]triazin-3(4H)-yl)-2,6-dioxopiperidin-1-yl)methyl benzoate] | < 1
O=C1CCC(n2nnc3ccc(Cl)cc3c2=O)C(=O)N1 (stereo not drawn) [Chemical formula 12, 3-(6-chloro-4-oxobenzo[d][1,2,3]triazin-3(4H)-yl)piperidine-2,6-dione] | 10 to 50
O=C1CCC(n2nnc3c([N+](=O)[O-])cccc3c2=O)C(=O)N1 (stereo not drawn) [Chemical formula 21, 3-(8-nitro-4-oxobenzo[d][1,2,3]triazin-3(4H)-yl)piperidine-2,6-dione] | 10 to 50
